Reference: ChEMBL document CHEMBL1201862, “PubChem BioAssay data set” (2004)
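These data come from cells grown in 96-well plates and exposed to compound for 48 hours at five concentrations. Abbreviation: GI50, concentration required for 50% inhibition of growth.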 Active and inactive are the calls of the source. No stated cut-off is given here; in the data, active = GI50 up to about 1.1 µM and inactive = higher.

Assays:
Assay in all cases: NCI-60 cell line screen, 48 h
DU-145 = tested on: DU-145
SN12C = tested on: SN12C
OVCAR-5 = tested on: OVCAR-5
NCI-H460 = tested on: NCI-H460
CAKI-1 = tested on: CAKI-1
SW-620 = tested on: SW-620
NCI/ADR-RES = tested on: NCI/ADR-RES
786-0 = tested on: 786-0
KM12 = tested on: KM12
UACC-257 = tested on: UACC-257
HCT-15 = tested on: HCT-15
RPMI-8226 = tested on: RPMI-8226
HT-29 = tested on: HT-29
LOX IMVI = tested on: LOX IMVI
OVCAR-8 = tested on: OVCAR-8
MOLT-4 = tested on: MOLT-4
HCT-116 = tested on: HCT-116
SF-268 = tested on: SF-268
MDA-MB-231 = tested on: MDA-MB-231

Structure (SMILES) | GI50 (DU-145) | GI50 (SN12C) | GI50 (OVCAR-5) | GI50 (NCI-H460) | GI50 (CAKI-1) | GI50 (SW-620) | GI50 (NCI/ADR-RES) | GI50 (786-0) | GI50 (KM12) | GI50 (UACC-257) | GI50 (HCT-15) | GI50 (RPMI-8226) | GI50 (HT-29) | GI50 (LOX IMVI) | GI50 (OVCAR-8) | GI50 (MOLT-4) | GI50 (HCT-116) | GI50 (SF-268) | GI50 (MDA-MB-231)
O=C(c1ccc(Cl)cc1Cl)N(C(=O)N1CCC(c2ccccc2)CC1)c1ccccc1 | > 100 µM (inactive) | > 100 µM (inactive) | > 100 µM (inactive) | > 100 µM (inactive) | > 100 µM (inactive) | > 100 µM (inactive) | > 100 µM (inactive) | > 100 µM (inactive) | > 100 µM (inactive) | 63.8 µM (inactive) | > 100 µM | 47.9 µM (inactive) | > 100 µM (inactive) | > 100 µM (inactive) | > 100 µM (inactive) | 17.8 µM (inactive) | 49.4 µM (inactive) | – | –
NCCSc1nc(N)c2ncn(C3OC(CO)C(O)C3O)c2n1 (configuration not stated) | – | > 100 µM (inactive) | > 100 µM (inactive) | > 100 µM (inactive) | > 100 µM (inactive) | > 100 µM (inactive) | – | > 100 µM (inactive) | > 100 µM (inactive) | > 100 µM (inactive) | > 100 µM | > 100 µM (inactive) | > 100 µM (inactive) | > 100 µM (inactive) | > 100 µM (inactive) | > 100 µM (inactive) | > 100 µM (inactive) | > 100 µM (inactive) | –
COc1cc(C2c3cc4c(cc3OC(Nc3ccccc3)C2C)OCO4)cc(OC)c1O (configuration not stated) | 4.02 µM (inactive) | 4.66 µM (inactive) | 7.96 µM (inactive) | – | 8.39 µM (inactive) | 3.37 µM (inactive) | 2.38 µM (inactive) | 7.5 µM (inactive) | 4.41 µM (inactive) | 7.73 µM (inactive) | 3.02 µM | 3.69 µM (inactive) | 3.85 µM (inactive) | – | 4.75 µM (inactive) | 0.836 µM (active) | 3.93 µM (inactive) | 7.48 µM (inactive) | 4.33 µM (inactive)
Cc1ccc(Oc2ccc(C)cc2N)cc1 | – | 97.7 µM (inactive) | 68.4 µM (inactive) | > 100 µM (inactive) | – | > 100 µM (inactive) | – | 86.9 µM (inactive) | > 100 µM (inactive) | 80.9 µM (inactive) | 48.5 µM | 97.9 µM (inactive) | 52.5 µM (inactive) | > 100 µM (inactive) | > 100 µM (inactive) | 53 µM (inactive) | > 100 µM (inactive) | 97.7 µM (inactive) | –
CC1=NN(c2ccccc2)C(=O)C1=C1SCCS1 | – | > 83 µM (inactive) | > 100 µM (inactive) | 50.7 µM (inactive) | > 78.9 µM (inactive) | > 38.3 µM (inactive) | – | > 72.9 µM (inactive) | > 88.9 µM (inactive) | > 74.6 µM (inactive) | 40.9 µM | > 25.8 µM (inactive) | > 74.5 µM (inactive) | 42.6 µM (inactive) | > 77.6 µM (inactive) | 15 µM (inactive) | > 48 µM (inactive) | > 94.6 µM (inactive) | –
COc1ccc(/C=C\c2cc(OC)c3c(c2)OCO3)c(O)c1O | – | 15 µM (inactive) | 26.7 µM (inactive) | 5.37 µM (inactive) | 2.79 µM (inactive) | 8.3 µM (inactive) | – | 3.26 µM (inactive) | 5.62 µM (inactive) | 14.1 µM (inactive) | 11 µM | 2.56 µM (inactive) | 20.7 µM (inactive) | 4.53 µM (inactive) | 5.53 µM (inactive) | 6.35 µM (inactive) | 6.95 µM (inactive) | 4.47 µM (inactive) | –
NNC(=O)/C(NC(=O)c1ccccc1)=C(\N)c1cccc([N+](=O)[O-])c1 | – | > 100 µM (inactive) | > 100 µM (inactive) | > 100 µM (inactive) | > 100 µM (inactive) | > 100 µM (inactive) | – | > 100 µM (inactive) | > 100 µM (inactive) | > 100 µM (inactive) | > 100 µM | > 100 µM (inactive) | > 100 µM (inactive) | > 100 µM (inactive) | > 100 µM (inactive) | 94.2 µM (inactive) | > 100 µM (inactive) | > 100 µM (inactive) | –
CCOP(=O)(OCC)C(C(=O)OC)C(=O)C(=O)Nc1c(C)cc(Br)cc1C (configuration not stated) | – | > 100 µM (inactive) | > 100 µM (inactive) | > 100 µM (inactive) | > 100 µM (inactive) | > 100 µM (inactive) | – | > 100 µM (inactive) | > 100 µM (inactive) | > 100 µM (inactive) | > 100 µM | > 100 µM (inactive) | > 100 µM (inactive) | > 100 µM (inactive) | > 100 µM (inactive) | > 100 µM (inactive) | > 100 µM (inactive) | > 100 µM (inactive) | –
COC(=O)C(=O)C(C(C)=O)C(=O)NCc1ccccc1 (configuration not stated) | – | > 100 µM (inactive) | > 100 µM (inactive) | > 100 µM (inactive) | > 100 µM (inactive) | 5.06 µM (inactive) | – | > 100 µM (inactive) | > 100 µM (inactive) | > 100 µM (inactive) | > 100 µM | > 100 µM (inactive) | > 100 µM (inactive) | 50.1 µM (inactive) | > 100 µM (inactive) | > 100 µM (inactive) | > 100 µM (inactive) | > 100 µM (inactive) | –
COc1ccc2nc(-c3ccc(OCc4ccccc4)cc3)ccc2c1 | – | > 100 µM (inactive) | > 100 µM (inactive) | > 100 µM (inactive) | – | > 100 µM (inactive) | – | > 100 µM (inactive) | > 100 µM (inactive) | > 100 µM (inactive) | – | > 100 µM (inactive) | > 100 µM (inactive) | > 100 µM (inactive) | > 100 µM (inactive) | > 100 µM (inactive) | > 100 µM (inactive) | > 100 µM (inactive) | –
O=C1/C(=N/c2ccc(Nc3ccccc3)cc2)Oc2ccccc21 | 8.47 µM (inactive) | 2.02 µM (inactive) | 2.54 µM (inactive) | 5.31 µM (inactive) | 1.85 µM (inactive) | 2.36 µM (inactive) | 1.9 µM (inactive) | 1.88 µM (inactive) | 2.14 µM (inactive) | 2.42 µM (inactive) | 3.3 µM | – | 2.2 µM (inactive) | 2.34 µM (inactive) | 2.64 µM (inactive) | 2.13 µM (inactive) | 1.67 µM (inactive) | 2.88 µM (inactive) | 2.27 µM (inactive)
O=C(Cc1ccccc1)N/N=C(\C1=Nc2ccc([N+](=O)[O-])cc2NC1O)C(O)c1ccc([N+](=O)[O-])cc1 (configuration not stated) | – | > 100 µM (inactive) | > 100 µM (inactive) | > 100 µM (inactive) | > 100 µM (inactive) | 80 µM (inactive) | – | > 100 µM (inactive) | – | > 100 µM (inactive) | > 100 µM | 44.4 µM (inactive) | > 100 µM (inactive) | 25.8 µM (inactive) | > 100 µM (inactive) | – | > 100 µM (inactive) | > 100 µM (inactive) | –
Cc1c(C(=O)/C=C/c2ccco2)[n+]([O-])c2ccccc2[n+]1[O-] | – | > 100 µM (inactive) | > 100 µM (inactive) | > 100 µM (inactive) | > 100 µM (inactive) | > 100 µM (inactive) | – | > 100 µM (inactive) | > 100 µM (inactive) | > 100 µM (inactive) | – | 41.8 µM (inactive) | > 100 µM (inactive) | > 100 µM (inactive) | > 100 µM (inactive) | 39.6 µM (inactive) | > 100 µM (inactive) | > 100 µM (inactive) | –
Cc1cc(N(CCC#N)CCC#N)ccc1/C=C1N=C(/C=C/c2ccccc2)N(c2ccc(S(N)(=O)=O)cc2)C\1=O | – | > 100 µM (inactive) | > 100 µM (inactive) | > 100 µM (inactive) | > 100 µM (inactive) | > 100 µM (inactive) | – | > 100 µM (inactive) | > 100 µM (inactive) | > 100 µM (inactive) | > 100 µM | 34.3 µM (inactive) | > 100 µM (inactive) | > 100 µM (inactive) | > 100 µM (inactive) | > 100 µM (inactive) | > 100 µM (inactive) | > 100 µM (inactive) | –
O=C(O)CNS(=O)(=O)c1ccc(NCc2ccccc2)cc1 | – | > 100 µM (inactive) | > 100 µM (inactive) | > 100 µM (inactive) | > 100 µM (inactive) | > 100 µM (inactive) | – | > 100 µM (inactive) | – | > 100 µM (inactive) | > 100 µM | > 100 µM (inactive) | > 100 µM (inactive) | > 100 µM (inactive) | > 100 µM (inactive) | > 100 µM (inactive) | > 100 µM (inactive) | > 100 µM (inactive) | –
Cc1cc(Cl)ccc1NC(=O)C(=O)Cc1occc(=O)c1O | – | > 100 µM (inactive) | > 100 µM (inactive) | > 100 µM (inactive) | > 100 µM (inactive) | > 100 µM (inactive) | – | > 100 µM (inactive) | > 100 µM (inactive) | > 100 µM (inactive) | > 100 µM | > 100 µM (inactive) | > 100 µM (inactive) | > 100 µM (inactive) | > 100 µM (inactive) | > 100 µM (inactive) | > 100 µM (inactive) | > 100 µM (inactive) | –
CC1=C(C(=O)Nc2cccc(Cl)c2)C(c2ccccc2F)C(C(=O)Nc2cccc(Cl)c2)=C(C)N1 | – | 11 µM (inactive) | 19.3 µM (inactive) | 6.7 µM (inactive) | 4.99 µM (inactive) | 21.6 µM (inactive) | – | 13.7 µM (inactive) | 7.55 µM (inactive) | 10.2 µM (inactive) | – | 2.77 µM (inactive) | 5.43 µM (inactive) | 7.1 µM (inactive) | 17 µM (inactive) | 2.51 µM (inactive) | – | 11.8 µM (inactive) | –
